Test results from publication PMC3634028, “Novel α-MSH Peptide Analogues with Broad Spectrum Antimicrobial Activity” (PLoS ONE, 2013).
Converted amounts (≈) assume the structure as drawn. Where a SMILES comes first, the peptide text is derived from it.

Tests used:
[1] = test system: C. glabrata; assay type: cell-based, Candida glabrata; conditions: 48 h
Experimental: (§1) Two Candida albicans isolates were purchased from the ATCC (No. 24433 and 76615). The other yeast isolates were obtained from the collection of Fondazione Ca' Granda- Ospedale Maggiore Policlinico, Milano. The collection included C. albicans (7 isolates), C. glabrata (3 isolates), and C. krusei (3 isolates). Antifungal susceptibility testing was performed using the broth microdilution method according to the NCCLS M27-A guidelines (National Committee for Clinical Laboratory Standards. 1997, Reference method for broth dilution antifungal susceptibility testing of yeasts and approved standard NCCLS document M27-A. National Committee for Clinical Laboratory Standards, Wayne, Pa.). […] After 48 h of incubation, the plates were inspected for purity. A colony was taken from the agar plate and transferred into 5 mL Sabouraud-dextrose broth and incubated for 48 h at 35°C. Cells were centrifuged at 1,000× g for 10 min and the pellet was washed twice with distilled water. Cells were counted and suspended in RPMI 1640 medium buffered to pH 7.0 with 0.165 mol l^−1 morpholinepropanesulphonic acid (MOPS) buffer (Sigma) to obtain the two times test inoculum (1×10^3 to 5×10^3 CFU/mL). […] The MIC90, i.e. the minimum inhibitory concentrations endpoint were determined as 90% reduction in turbidity measured using a spectrophotometer (Titertek multiscan at 690 nm wave length).

[2] = test system: HaCaT keratinocyte cell line; test: Cytotoxic activity, MTT colorimetric method; assay type: cell-based, human; conditions: 24 h; for cell death / killing of human keratinocytes: highest peptide concentration used (100 µM)
Experimental: Effects on viability was tested in the immortalised keratinocyte cell line HaCaT using the [3(4,5-dimethylthiazol-2yl)2,5-diphenyltetrazolium bromide] (MTT) colorimetric method in which the intensity of the dye is proportional to the number of viable cells. MTT is a tetrazolium salt which is reduced to a colored formazan product by mitochondrial reductases present only in metabolically active cells. Cells were cultured in Dulbecco's modified Eagle's medium (DMEM; Sigma) supplemented with 10% heat inactivated fetal bovine serum, glutamine (4 mM) and gentamicin. Afterwards, cells were plated in triplicate wells of a microtiter plate, at 4×10^4 cells/well in DMEM supplemented with 2% serum without antibiotic. After overnight incubation at 37°C in a 5% CO2 atmosphere, the medium was replaced with […] fresh DMEM supplemented with the peptides at different concentrations. The plate was incubated for 24 h at 37°C in a 5% CO2 atmosphere. Then, DMEM was removed and replaced with Hank's medium (136 mM NaCl; 4.2 mM Na2HPO4; 4.4 mM KH2PO4; 5.4 mM KCl; 4.1 mM NaHCO3, pH 7.2, supplemented with 20 mM D-glucose) containing 0.5 mg/ml MTT. After 4 h incubation, the formazan crystals were dissolved by adding 100 µl of acidified isopropanol and absorption of each well was measured using a microplate reader (Infinite M200; Tecan, Salzburg, Austria) at 570 nm. Cell viability was e expressed as percentage of viability in control cells (cells not treated with peptide).
Figure 1 Effects of the synthetic melanocortins on viability of HaCat cells. Cells were plated in wells of a microtiter plate, at 4×10^4 cells/well in DMEM supplemented with 2% serum without antibiotic. After overnight incubation at 37°C in a 5% CO2 atmosphere, the medium was replaced with 100 µl fresh DMEM supplemented with the peptides at different concentrations. […] Cell viability is expressed as percentage of viability in control cells (cells not treated with the peptide).

[3] = test system: Escherichia coli D21; assay type: cell-based; conditions: D21, 18 h
Experimental: (§2) The strains used for the antimicrobial assays were the Gram-negative bacteria Acinetobacter baumani ATCC 19606, Escherichia coli D21, Pseudomonas aeruginosa ATCC 27853, and Pseudomonas syringae pv tabaci 1918NCPPB and the Gram-positive bacteria Bacillus megaterium Bm11, Staphylococcus aureus ATCC 25923, and Staphylococcus epidermidis ATCC 12228. Susceptibility testing was performed by adapting the microbroth dilution method outlined by the Clinical and Laboratory Standards Institute, using sterile 96-well plates (Falcon NJ, USA). The bacterial growth was aseptically measured by absorbance at 590 nm with a spectrophotometer (UV-1700 Pharma Spec Shimadzu, Tokyo, Japan). Afterwards, aliquots (50 µl) of bacteria in mid-log phase at a concentration of 2×10^6 colony-forming units (CFU)/mL in culture medium (Mueller-Hinton, MH) were added to 50 µl of MH broth containing the peptide in serial 2-fold dilutions ranging from 1.56 to 100 µM. Inhibition of microbial growth was determined by measuring the absorbance at 590 nm, after an incubation of 18 h at 37°C with a microplate reader (Infinite M200; Tecan, Salzburg, Austria).

[4] = test system: Acinetobacter baumani ATCC 19606; assay type: cell-based; conditions: ATCC 19606, 18 h
Experimental: as §2

[5] = test system: Bacillus megaterium Bm11; assay type: cell-based; conditions: Bacillus Bm11, 18 h
Experimental: as §2

[6] = test system: Pseudomonas aeruginosa ATCC 27853; assay type: cell-based; conditions: ATCC 27853, 18 h
Experimental: as §2

[7] = test system: Staphylococcus aureus ATCC 25923; assay type: cell-based; conditions: ATCC 25923, 18 h
Experimental: as §2

[8] = test system: Pseudomonas syringae pv tabaci 1918NCPPB; assay type: cell-based; conditions: 18 h
Experimental: as §2

[9] = test system: Staphylococcus epidermidis ATCC 12228; assay type: cell-based; conditions: ATCC 12228, 18 h
Experimental: as §2

[10] = test system: C. albicans; assay type: cell-based, Candida albicans; conditions: 48 h
Experimental: as §1

[11] = test system: C. krusei; assay type: cell-based, Candida krusei; conditions: 48 h
Experimental: as §1

[12] = test system: Candida strains (C. albicans, C. glabrata, C. krusei); test: Anti-Candida assay, overall result in words; assay type: cell-based, Candida spp; conditions: standard culture conditions, broth culture medium
Experimental: as §1

| Compound | MIC 90 [1] [µM] | cell death / killing of human keratinocytes [2] | MIC 100 [3] [µM] | MIC 100 [4] [µM] | MIC 100 [5] [µM] | MIC 100 [6] [µM] | MIC 100 [7] [µM] | MIC 100 [8] [µM] | MIC 100 [9] [µM] | MIC 90 [10] [µM] | MIC 90 [11] [µM] | antimicrobial / anti-Candida activity (in words) [12] | toxic effects on human keratinocytes (in words) ([2]; at 50–100 µM concentrations) | toxic activity on human keratinocytes (in words) ([2]; up to a concentration of 12.5 µM) |
| --- | --- | --- | --- | --- | --- | --- | --- | --- | --- | --- | --- | --- | --- | --- |
| CC(C)[C@H](NC(=O)[C@H](Cc1ccccc1)NC(=O)[C@H](CCCCN)NC(=O)C1(NC(=O)[C@H](Cc2c[nH]c3ccccc23)NC(=O)[C@H](CCCNC(=N)N)NC(=O)[C@@H](Cc2ccc3ccccc3c2)NC(=O)[C@@H](N)Cc2c[nH]cn2)Cc2ccccc2C1)C(N)=O [Peptide 8, H-His-D(2′)Nal-Arg-Trp-Aic-Lys-Phe-Val-NH2] (HELM PEPTIDE1{H.[O=C([C@@H](Cc1ccc2ccccc2c1)N[*:1])[*:2]].R.W.[O=C(C1(N[*:1])Cc2ccccc2C1)[*:2]].K.F.V.[am]}$$$$V2.0) | 100 (≈ 123 µg/mL) | 50–100% | 12.5 (≈ 15.3 µg/mL) | 12.5 (≈ 15.3 µg/mL) | 1.56 (≈ 1.91 µg/mL) | 50 (≈ 61.4 µg/mL) | 12.5 (≈ 15.3 µg/mL) | 25 (≈ 30.7 µg/mL) | 6.25 (≈ 7.67 µg/mL) |  |  |  |  |  |
| CC(C)[C@H](NC(=O)[C@H](Cc1ccccc1)NC(=O)[C@H](CCCCN)NC(=O)[C@@H]1CCC[C@H]1NC(=O)[C@H](Cc1c[nH]c2ccccc12)NC(=O)[C@H](CCCNC(=N)N)NC(=O)[C@@H](Cc1ccc2ccccc2c1)NC(=O)[C@@H](N)Cc1c[nH]cn1)C(N)=O [Peptide 12, H-His-D(2′)Nal-Arg-Trp-Acpc-Lys-Phe-Val-NH2] (HELM PEPTIDE1{H.[O=C([C@@H](Cc1ccc2ccccc2c1)N[*:1])[*:2]].R.W.[O=C([C@@H]1CCC[C@H]1N[*:1])[*:2]].K.F.V.[am]}$$$$V2.0) | >100 |  |  |  |  |  |  |  |  | >100 | >100 | no anti-Candida activity |  |  |
| CC(C)[C@H](NC(=O)[C@H](Cc1ccccc1)NC(=O)[C@H](CCCCN)NC(=O)C1(NC(=O)[C@H](Cc2c[nH]c3ccccc23)NC(=O)[C@H](CCCNC(=N)N)NC(=O)[C@@H](Cc2ccc3ccccc3c2)NC(=O)[C@@H](N)Cc2c[nH]cn2)CC1)C(N)=O [Peptide 4, H-His-D(2′)Nal-Arg-Trp-Ac3c-Lys-Phe-Val-NH2] (HELM PEPTIDE1{H.[O=C([C@@H](Cc1ccc2ccccc2c1)N[*:1])[*:2]].R.W.[O=C(C1(N[*:1])CC1)[*:2]].K.F.V.[am]}$$$$V2.0) | >100 | less than 30% | 100 (≈ 115 µg/mL) | 50 (≈ 57.6 µg/mL) | 6.25 (≈ 7.2 µg/mL) | 50 (≈ 57.6 µg/mL) | 100 (≈ 115 µg/mL) | >100 | 25 (≈ 28.8 µg/mL) | >100 | >100 | inactive |  |  |
| CC(C)[C@H](NC(=O)[C@H](Cc1ccccc1)NC(=O)[C@H](CCCCN)NC(=O)[C@H](Cc1ccccc1)NC(=O)[C@H](Cc1c[nH]c2ccccc12)NC(=O)[C@H](CCCNC(=N)N)NC(=O)[C@@H](Cc1ccc2ccccc2c1)NC(=O)[C@@H](N)Cc1c[nH]cn1)C(N)=O [Peptide 9, H-His-D(2′)Nal-Arg-Trp-Phe-Lys-Phe-Val-NH2] (HELM PEPTIDE1{H.[O=C([C@@H](Cc1ccc2ccccc2c1)N[*:1])[*:2]].R.W.F.K.F.V.[am]}$$$$V2.0) | >100 | less than 30% | 50 (≈ 60.8 µg/mL) | 25 (≈ 30.4 µg/mL) | 3.125 (≈ 3.8 µg/mL) | 25 (≈ 30.4 µg/mL) | 50 (≈ 60.8 µg/mL) | 100 (≈ 122 µg/mL) | 12.5 (≈ 15.2 µg/mL) |  | >100 | decreased activity |  |  |
| CC(C)[C@H](NC(=O)[C@H](Cc1ccccc1)NC(=O)[C@H](CCCCN)NC(=O)[C@H](CC1CCCCC1)NC(=O)[C@H](Cc1c[nH]c2ccccc12)NC(=O)[C@H](CCCNC(=N)N)NC(=O)[C@@H](Cc1ccc2ccccc2c1)NC(=O)[C@@H](N)Cc1c[nH]cn1)C(N)=O [Peptide 10, H-His-D(2′)Nal-Arg-Trp-Cha-Lys-Phe-Val-NH2] (HELM PEPTIDE1{H.[O=C([C@@H](Cc1ccc2ccccc2c1)N[*:1])[*:2]].R.W.[Cha].K.F.V.[am]}$$$$V2.0) | >100 |  | 6.25 (≈ 7.63 µg/mL) | 12.5 (≈ 15.3 µg/mL) | 3.125 (≈ 3.82 µg/mL) | 25 (≈ 30.5 µg/mL) | 12.5 (≈ 15.3 µg/mL) | 25 (≈ 30.5 µg/mL) | 6.25 (≈ 7.63 µg/mL) |  |  | potency similar to that of peptide 8 | exerted toxic effects | completely devoid of toxic activity |
| CCC(CC)(NC(=O)[C@H](Cc1c[nH]c2ccccc12)NC(=O)[C@H](CCCNC(=N)N)NC(=O)[C@@H](Cc1ccc2ccccc2c1)NC(=O)[C@@H](N)Cc1c[nH]cn1)C(=O)N[C@@H](CCCCN)C(=O)N[C@@H](Cc1ccccc1)C(=O)N[C@H](C(N)=O)C(C)C [Peptide 2, H-His-D(2′)Nal-Arg-Trp-Deg-Lys-Phe-Val-NH2] (HELM PEPTIDE1{H.[O=C([C@@H](Cc1ccc2ccccc2c1)N[*:1])[*:2]].R.W.[CCC(CC)(N[*:1])C(=O)[*:2]].K.F.V.[am]}$$$$V2.0) | >100 |  |  |  |  |  |  |  |  | >100 | >100 | did not show antimicrobial activity |  |  |
